Experimental findings from patent publication US6949250B2, “Selective algaecides for control of cyanochloronta” (The United States of America as represented by the …, priority 2002, dated 2005) are described below.

Each structure is given as a SMILES string.

For one data set, the system named is Raphidiopsis brookii. The data set can be described thus: DNA2-59-1 second pond efficacy study: Raphidiopsis brookii abundance. To be noted: 0.3 μM, within three days of application. The data set is classed as in vivo. The protocol: (§1) The method described by Schrader et al. (2000) was used to determine the potential for using the anthraquinone derivatives as selective algicides in catfish aquaculture ponds. All catfish ponds used in efficacy tests were maintained using commercial pond management practices and were located at the Thad Cochran Pond Facility, Mississippi State University, Stoneville, Miss. Anthraquinone analogs were dissolved in deionized water before application to water within the limnocorrals.
(§2) Limnocorrals in which test compound was applied to the enclosed water were randomly selected, and control (no test compound applied) limnocorrals were included in each efficacy study. For each sampling, two water samples (250 mL) were obtained from within each limnocorral (approximately 6-8 cm below the water surface and from opposite sides of each limnocorral) and mixed together in a 500 mL sample bottle to provide a representative sample of the water contained within the limnocorral.
In the second efficacy test with DNA2-59-1, six limnocorrals (1.53 m in diameter and 1.53 m high) were placed in a 0.1-ha earthen pond containing a heavy bloom of O. perornata. The same delay in mixing the water within the limnocorrals used in the first efficacy study was utilized. Water within three randomly selected limnocorrals received an application rate of 0.3 μM DNA2-59-1, and the other three limnocorrals were controls. […]

The next data set deals with chlorophyll a. The data set can be described thus: DNA2-59-1 first pond efficacy study: chlorophyll a. The format is in vivo. As to the method:
as §1
Limnocorrals in which test compound was applied to the enclosed water were randomly selected, and control (no test compound applied) limnocorrals were included in each efficacy study. […]
In the first study, application rates of 0.1 μM (37.7 μg/L), 0.3 μM ([…]), and 1.0 μM (377 μg/L) of DNA2-59-1 were tested using limnocorrals (three replicates per concentration) that were of the same type used for testing DNA1-19-1. […] Water samples were also analyzed to determine the persistence of DNA2-59-1 in the pond water, and this analysis was performed by using high-pressure liquid chromatography (HPLC) (method and results are described later).

The next data set relates to Oscillatoria geminata. The data set can be described thus: DNA2-59-1 third pond efficacy study: Oscillatoria geminata abundance. The data set is classed as in vivo. To be noted: 0.3 μM, from two days through four days after application. As to the method:
as §1, §2
For the third efficacy test with DNA2-59-1, twelve limnocorrals (2.44 m in diameter and 1.53 m high) were placed in a 4-ha earthen pond containing a bloom of O. perornata. […]

A further data set concerns green algae. The data set can be described thus: DNA1-19-1 first pond efficacy study (limnocorrals): green algae abundance. The data set is classed as in vivo, green algae (Division Chlorophyta). To be noted: 2 μM, until 10 days after application, LSD. The protocol: as §1, §2
Three pond efficacy studies were conducted with DNA1-19-1. […] To perform phytoplankton identification and enumeration, water samples were processed by preserving 50-mL subsamples with Lugol's solution and storing them at 4° C. until they could be identified and counted as “natural units” (i.e., colonies, filaments, or unialgal cells) using a Sedgewick-Rafter counting chamber at 300× magnification. […]

On to `CC(C)NCc1ccc2c(c1)C(=O)c1ccccc1C2=O` [DNA2-59-1, 2-[methylamino-N-(1′-methylethyl)]-9,10-anthraquinone monophosphate], for which the “Numbers of Raphidiopsis brookii (result in words)” value in the data set on Raphidiopsis brookii is “significantly and dramatically reduced”. Further, in the data set with chlorophyll a (0.1 μM), the “Chlorophyll a levels significantly reduced compared to controls (result in words)” value is “not”. Besides, in the data set on chlorophyll a (1 and 0.3 μM), the “chlorophyll a levels compared to controls (result in words)” value was “significantly reduced”. Besides, the “abundance of Oscillatoria geminate vs controls (result in words)” value in the data set on Oscillatoria geminata is recorded as “significantly lower than controls”.
Take `CCN(CC)CCCC(C)NCc1ccc2c(c1)C(=O)c1ccccc1C2=O.O=P(O)(O)O.O=P(O)(O)O` (centres unmarked) [DNA1-19-1, 2-[methylamino-N-(1′-methyl-4′-N,N-diethylaminobutyl)]-9,10-anthraquinone diphosphate]: the “Numbers of green algae, treated vs controls (result in words)” value in the data set on green algae is on record as “not significantly different”.
